Measurements published in ChEMBL document CHEMBL2073810, “Mrp2 is essential for estradiol-17beta(beta-D-glucuronide)-induced cholestasis in rats” (Hepatology, 2000).

Legend:
Type in all cases: functional, cell membranes, Membrane vesicle
Bile salt export pump [1] = target: T1, Bile salt export pump (Rattus norvegicus, UniProt O70127); assay: TP_TRANSPORTER: inhibition of Taurocholate uptake (Taurochorate: 100 uM, TLC: 10 uM) in membrane vesicles from Bsep-expressing Sf9 cells; settings: sf9, 10 µM
T1 sequence (O70127 whole entry): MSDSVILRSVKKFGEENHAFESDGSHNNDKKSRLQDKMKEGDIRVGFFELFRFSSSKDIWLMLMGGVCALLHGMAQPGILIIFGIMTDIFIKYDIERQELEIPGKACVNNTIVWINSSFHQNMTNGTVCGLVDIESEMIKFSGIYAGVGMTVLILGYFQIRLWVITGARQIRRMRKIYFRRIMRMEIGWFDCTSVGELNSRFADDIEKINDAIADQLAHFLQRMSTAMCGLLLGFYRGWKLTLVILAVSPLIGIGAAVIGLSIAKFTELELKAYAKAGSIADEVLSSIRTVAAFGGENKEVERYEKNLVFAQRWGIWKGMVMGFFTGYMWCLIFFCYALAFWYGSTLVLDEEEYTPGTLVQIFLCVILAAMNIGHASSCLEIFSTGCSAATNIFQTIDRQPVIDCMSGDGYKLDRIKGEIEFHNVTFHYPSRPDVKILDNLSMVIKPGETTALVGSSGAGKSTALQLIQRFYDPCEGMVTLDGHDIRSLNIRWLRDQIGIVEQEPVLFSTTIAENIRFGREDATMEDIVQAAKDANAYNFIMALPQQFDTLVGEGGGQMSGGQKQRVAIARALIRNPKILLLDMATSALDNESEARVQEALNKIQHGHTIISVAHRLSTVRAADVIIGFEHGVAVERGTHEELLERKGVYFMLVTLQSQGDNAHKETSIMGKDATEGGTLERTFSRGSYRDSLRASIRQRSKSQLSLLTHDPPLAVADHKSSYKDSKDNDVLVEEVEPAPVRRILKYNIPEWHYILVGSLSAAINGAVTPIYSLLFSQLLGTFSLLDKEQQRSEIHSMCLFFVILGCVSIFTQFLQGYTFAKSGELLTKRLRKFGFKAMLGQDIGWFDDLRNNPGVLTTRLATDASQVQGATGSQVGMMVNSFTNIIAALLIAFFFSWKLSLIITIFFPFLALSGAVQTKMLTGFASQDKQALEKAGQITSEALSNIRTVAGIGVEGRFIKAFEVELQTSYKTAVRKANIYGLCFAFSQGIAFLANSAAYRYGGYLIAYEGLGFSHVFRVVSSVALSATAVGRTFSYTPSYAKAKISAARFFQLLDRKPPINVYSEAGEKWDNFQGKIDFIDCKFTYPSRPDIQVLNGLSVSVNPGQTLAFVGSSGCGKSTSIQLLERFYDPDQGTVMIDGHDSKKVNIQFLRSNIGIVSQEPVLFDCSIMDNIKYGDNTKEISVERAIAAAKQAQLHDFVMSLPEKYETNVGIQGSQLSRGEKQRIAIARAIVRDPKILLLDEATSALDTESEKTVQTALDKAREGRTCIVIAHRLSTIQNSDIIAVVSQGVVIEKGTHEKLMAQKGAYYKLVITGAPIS

Bile salt export pump [2] = target: T1, Bile salt export pump; assay: TP_TRANSPORTER: inhibition of Taurocholate uptake (Taurochorate: 1 uM, E217betaG: 50 uM) in membrane vesicles from Bsep-expressing Sf9 cells; settings: sf9, 50 µM
Bile salt export pump [3] = target: T1, Bile salt export pump; assay: TP_TRANSPORTER: inhibition of Taurocholate uptake (Taurochorate: 1uM, Ethinyl estradiol: 25 uM) in membrane vesicles from Bsep-expressing Sf9 cells; settings: sf9, 25 µM

`C[C@H](CCC(=O)NCCS(=O)(=O)O)[C@H]1CC[C@H]2[C@@H]3CC[C@@H]4C[C@H](O)CC[C@]4(C)[C@H]3CC[C@]12C` [TAUROLITHOCHOLIC ACID] was tested, and the Activity (Bile salt export pump [1]) was “inhibitor [+]”.

For `C[C@]12CC[C@@H]3c4ccc(O)cc4CC[C@H]3[C@@H]1CC[C@@H]2O[C@@H]1O[C@H](C(=O)O)[C@@H](O)[C@H](O)[C@H]1O` [ESTRADIOL 17B GLUCURONIDE], the Activity (Bile salt export pump [2]) was “is not an inhibitor [-]”.

For `C#C[C@]1(O)CC[C@H]2[C@@H]3CCc4cc(O)ccc4[C@H]3CC[C@@]21C` [ETHINYL ESTRADIOL], the Activity (Bile salt export pump [3]) was “is not an inhibitor [-]”.
